In brackets after ≈: the same amount, converted by molar mass.
How the values were obtained:
Assay type in all cases: cell-based
[1] = test system: S. aureus ATCC 33591 (methicillin-resistant); assay: broth microdilution MIC assay, S. aureus 33591; conditions: Staphylococcus aureus, ATCC33591; S. aureus 33591, methicillin-resistant; read-out: MIC, S. aureus 33591
Procedure: (§1) To determine the ability of test compounds to inhibit the growth of bacterial strains, classic cell-based broth microdilution MIC assays were employed. MIC assays are performed according to CLSI methods except where otherwise noted (CLSI, 2011 and CLSI, 2009). The reference strains S. aureus ATCC 29213 (methicillin sensitive), S. aureus ATCC 33591 (methicillin-resistant), E. coli ATCC 25922 (wild-type/QC strain), P. aeruginosa ATCC 27853 (wild-type/QC strain), and the clinical isolate P. aeruginosa PA 8 were used to determine the ability of the exemplary carbapenem compounds to inhibit bacterial growth. An expanded panel of methicillin resistance S. aureus (MRSA) and Pseudomonas was also used to determine the ability of exemplary carbapenem compounds to inhibit bacterial growth across a broader representation of those species. To determine activity in MRSA and in addition to S. aureus ATCC 33591, S. aureus USA 300 and USA 600, some of the most common clones found to cause human infection, were also used. To further gauge the impact on the carbapenem compounds due to various resistance mechanisms in Pseudomonas, the following strains were included: P. aeruginosa 35151 (hyper-permeable strain), P. aeruginosa ΔmexAB-OprM (an efflux pump knockout), and P. aeruginosa Paβ-173 (a clinical isolate of reduced carbapenem susceptibility). Briefly, cryo-preserved bacterial cultures of clinical strains are streaked for isolation on appropriate agar medium, in this case Mueller Hinton II agar. Following incubation to allow formation of colonies, these plates are sealed with parafilm and stored refrigerated for up to two weeks. For preparation of assay inocula and to ensure low variability, at least 5 colonies are picked from the agar plates with an inoculating loop and aseptically transferred to a culture tube containing 3 mL of Mueller-Hinton Broth (supplemented with divalent cations to required levels based on Manufacturers' specification). The broth culture is grown for 3-5 hours at 37° C. with shaking at 200 rpm. Meanwhile, 2-fold serial dilutions of test compounds are conducted in a 96 well plate with a final volume of 75 μL per well at 2-fold the final desired concentration. After the dilution plates are set up the growing cultures are then diluted in a cuvette containing MH II broth and the optical density is measured at 600 nm. Inocula are diluted such that 75 μL of this culture in Mueller-Hinton Broth results in a starting bacterial concentration of 5×10^5 CFU/mL when added to the dilution plates. The plates are incubated 16-20 hours at 37° C. The MIC is read visually as the lowest concentration well with no bacterial growth.

[2] = test system: P. aeruginosa 35151 (hyper-permeable strain); assay: broth microdilution MIC assay, P. aeruginosa 35151; conditions: Pseudomonas aeruginosa, read-out: MIC, P. aeruginosa 35151
Procedure: as §1

P. aeruginosa Paeβ-17 = assay: broth microdilution MIC assay, P. aeruginosa Paeβ-17; conditions: Pseudomonas aeruginosa, read-out: MIC, P. aeruginosa Paeβ-17
Procedure: as §1

[3] = test system: P. aeruginosa ATCC 27853 (wild-type/QC strain); assay: broth microdilution MIC assay, P. aeruginosa 27853; conditions: Pseudomonas aeruginosa, ATCC27853; read-out: MIC, P. aeruginosa 27853
Procedure: as §1

S. aureus USA 600 = assay: broth microdilution MIC assay, S. aureus USA600; conditions: Staphylococcus aureus; S. aureus USA600 (MRSA); read-out: MIC, S. aureus USA600
Procedure: as §1

[4] = test system: P. aeruginosa ΔmexAB-OprM (an efflux pump knockout); assay: broth microdilution MIC assay, P. aeruginosa ΔmexAB-OprM; conditions: Pseudomonas aeruginosa, read-out: MIC, P. aeruginosa ΔmexAB-OprM
Procedure: as §1

S. aureus USA 300 = assay: broth microdilution MIC assay, S. aureus USA300; conditions: Staphylococcus aureus; S. aureus USA300 (MRSA); read-out: MIC, S. aureus USA300
Procedure: as §1

[5] = test system: E. coli ATCC 25922 (wild-type/QC strain); assay: broth microdilution MIC assay, E. coli 25922; conditions: Escherichia coli, ATCC25922; read-out: MIC, E. coli 25922
Procedure: as §1

Row | Compound | MIC [1] [µg/mL] | MIC [2] [µg/mL] | MIC (P. aeruginosa Paeβ-17) [µg/mL] | MIC [3] [µg/mL] | MIC (S. aureus USA 600) [µg/mL] | MIC [4] [µg/mL] | MIC (S. aureus USA 300) [µg/mL] | MIC [5] [µg/mL]
1 | C[C@@H](O)[C@H]1C(=O)N2C(C(=O)O)=C(S[C@@H]3CCN(C[C@H]4CC[C@@H](NC(=N)N)CC4)C3)[C@H](C)[C@H]12 [Example 33, (4R,5S,6S)-3-(((R)-1-(((1S,4S)-4-guanidinocyclohexyl)methyl)pyrrolidin-3-yl)thio)-6-((R)-1-hydroxyethyl)-4-methyl-7-oxo-1-azabicyclo[3.2.0]hept-2-ene-2-carboxylic acid] | 1 to 4 (≈ 2.15 to 8.59 µM) | < 1 | 8 to 32 (≈ 17.2 to 68.7 µM) | 1 to 4 (≈ 2.15 to 8.59 µM) | 1 to 4 (≈ 2.15 to 8.59 µM) | 1 to 4 (≈ 2.15 to 8.59 µM) | < 1 | < 1
2 | C[C@@H](O)[C@H]1C(=O)N2C(C(=O)O)=C(S[C@@H]3CCN([C@H]4CC[C@@H](NC(=N)N)CC4)C3)[C@H](C)[C@H]12 [Example 34, (4R,5S,6S)-3-(((R)-1-((1S,4S)-4-guanidinocyclohexyl)pyrrolidin-3-yl)thio)-6-((R)-1-hydroxyethyl)-4-methyl-7-oxo-1-azabicyclo[3.2.0]hept-2-ene-2-carboxylic acid] | 1 to 4 (≈ 2.21 to 8.86 µM) | < 1 | 8 to 32 (≈ 17.7 to 70.9 µM) | 1 to 4 (≈ 2.21 to 8.86 µM) | 1 to 4 (≈ 2.21 to 8.86 µM) | 1 to 4 (≈ 2.21 to 8.86 µM) | < 1 | < 1
3 | C[C@@H](O)[C@H]1C(=O)N2C(C(=O)O)=C(S[C@@H]3CCN([C@@H]4CC[C@@H](N)C4)C3)[C@H](C)[C@H]12 [Example 35, (4R,5S,6S)-3-(((R)-1-((1R,3R)-3-aminocyclopentyl)pyrrolidin-3-yl)thio)-6-((R)-1-hydroxyethyl)-4-methyl-7-oxo-1-azabicyclo[3.2.0]hept-2-ene-2-carboxylic acid] | 1 to 4 (≈ 2.53 to 10.1 µM) | < 1 | 8 to 32 (≈ 20.2 to 80.9 µM) | 1 to 4 (≈ 2.53 to 10.1 µM) | 1 to 4 (≈ 2.53 to 10.1 µM) | 1 to 4 (≈ 2.53 to 10.1 µM) | 1 to 4 (≈ 2.53 to 10.1 µM) | < 1
4 | C[C@@H](O)[C@H]1C(=O)N2C(C(=O)O)=C(S[C@@H]3CCN([C@H]4CC[C@@H](N)C4)C3)[C@H](C)[C@H]12 [Example 36, (4R,5S,6S)-3-(((R)-1-((1S,3R)-3-aminocyclopentyl)pyrrolidin-3-yl)thio)-6-((R)-1-hydroxyethyl)-4-methyl-7-oxo-1-azabicyclo[3.2.0]hept-2-ene-2-carboxylic acid] | 1 to 4 (≈ 2.53 to 10.1 µM) | < 1 | 8 to 32 (≈ 20.2 to 80.9 µM) | 1 to 4 (≈ 2.53 to 10.1 µM) | 1 to 4 (≈ 2.53 to 10.1 µM) | 1 to 4 (≈ 2.53 to 10.1 µM) | 1 to 4 (≈ 2.53 to 10.1 µM) | < 1
5 | C[C@@H](O)[C@H]1C(=O)N2C(C(=O)O)=C(SC3CN(C4CCNC4)C3)[C@H](C)[C@H]12 (stereo partly drawn) [Example 37, (4R,5S,6S)-6-((R)-1-hydroxyethyl)-4-methyl-7-oxo-3-((1-(pyrrolidin-3-yl)azetidin-3-yl)thio)-1-azabicyclo[3.2.0]hept-2-ene-2-carboxylic acid] | 8 to 32 (≈ 21.8 to 87.1 µM) | < 1 | 8 to 32 (≈ 21.8 to 87.1 µM) | 8 to 32 (≈ 21.8 to 87.1 µM) | 1 to 4 (≈ 2.72 to 10.9 µM) | 1 to 4 (≈ 2.72 to 10.9 µM) | 1 to 4 (≈ 2.72 to 10.9 µM) | < 1
6 | C[C@@H](O)[C@H]1C(=O)N2C(C(=O)O)=C(S[C@H]3C[C@H](NC4CCNCC4)C3)[C@H](C)[C@H]12 [Example 38, (4R,5S,6S)-6-((R)-1-hydroxyethyl)-4-methyl-7-oxo-3-(((1R,3R)-3-(piperidin-4-ylamino)cyclobutyl)thio)-1-azabicyclo[3.2.0]hept-2-ene-2-carboxylic acid] | 8 to 32 (≈ 20.2 to 80.9 µM) | < 1 | 8 to 32 (≈ 20.2 to 80.9 µM) | 8 to 32 (≈ 20.2 to 80.9 µM) | 1 to 4 (≈ 2.53 to 10.1 µM) | 1 to 4 (≈ 2.53 to 10.1 µM) | 1 to 4 (≈ 2.53 to 10.1 µM) | < 1
7 | C[C@@H](O)[C@H]1C(=O)N2C(C(=O)O)=C(SC3CN(C[C@@H]4CCN(C(=N)N)C4)C3)[C@H](C)[C@H]12 [Example 39, (4R,5S,6S)-3-((1-(((S)-1-carbamimidoylpyrrolidin-3-yl)methyl)azetidin-3-yl)thio)-6-((R)-1-hydroxyethyl)-4-methyl-7-oxo-1-azabicyclo[3.2.0]hept-2-ene-2-carboxylic acid] | 8 to 32 (≈ 18.9 to 75.6 µM) | 1 to 4 (≈ 2.36 to 9.44 µM) | > 32 | 8 to 32 (≈ 18.9 to 75.6 µM) | 1 to 4 (≈ 2.36 to 9.44 µM) | 1 to 4 (≈ 2.36 to 9.44 µM) | 1 to 4 (≈ 2.36 to 9.44 µM) | < 1
8 | C[C@@H](O)[C@H]1C(=O)N2C(C(=O)O)=C(SC3CN(CC4CCN(C)CC4)C3)[C@H](C)[C@H]12 [Example 40, (4R,5S,6S)-6-((R)-1-hydroxyethyl)-4-methyl-3-((1-((1-methylpiperidin-4-yl)methyl)azetidin-3-yl)thio)-7-oxo-1-azabicyclo[3.2.0]hept-2-ene-2-carboxylic acid] | 8 to 32 (≈ 19.5 to 78.1 µM) | < 1 | 8 to 32 (≈ 19.5 to 78.1 µM) | 8 to 32 (≈ 19.5 to 78.1 µM) | 1 to 4 (≈ 2.44 to 9.77 µM) | 1 to 4 (≈ 2.44 to 9.77 µM) | 1 to 4 (≈ 2.44 to 9.77 µM) | < 1
9 | C[C@@H](O)[C@H]1C(=O)N2C(C(=O)O)=C(S[C@@H]3CCN(C[C@H]4CC[C@H](CNC(=N)N)CC4)C3)[C@H](C)[C@H]12 [Example 41, (4R,5S,6S)-3-(((R)-1-(((1R,4R)-4-(guanidinomethyl)cyclohexyl)methyl)pyrrolidin-3-yl)thio)-6-((R)-1-hydroxyethyl)-4-methyl-7-oxo-1-azabicyclo[3.2.0]hept-2-ene-2-carboxylic acid] | 1 to 4 (≈ 2.08 to 8.34 µM) | < 1 | 8 to 32 (≈ 16.7 to 66.7 µM) | 1 to 4 (≈ 2.08 to 8.34 µM) | 1 to 4 (≈ 2.08 to 8.34 µM) | 1 to 4 (≈ 2.08 to 8.34 µM) | 1 to 4 (≈ 2.08 to 8.34 µM) | < 1
10 | C[C@@H](O)[C@H]1C(=O)N2C(C(=O)O)=C(SC3CN(C4CCN(C)CC4)C3)[C@H](C)[C@H]12 [Example 42, (4R,5S,6S)-6-((R)-1-hydroxyethyl)-4-methyl-3-((1-(1-methylpiperidin-4-yl)azetidin-3-yl)thio)-7-oxo-1-azabicyclo[3.2.0]hept-2-ene-2-carboxylic acid] | 8 to 32 (≈ 20.2 to 80.9 µM) | < 1 | 8 to 32 (≈ 20.2 to 80.9 µM) | 8 to 32 (≈ 20.2 to 80.9 µM) | 1 to 4 (≈ 2.53 to 10.1 µM) | 8 to 32 (≈ 20.2 to 80.9 µM) | 1 to 4 (≈ 2.53 to 10.1 µM) | < 1
11 | C[C@@H](O)[C@H]1C(=O)N2C(C(=O)O)=C(S[C@H]3C[C@@H](NC4CCN(C(=N)N)CC4)C3)[C@H](C)[C@H]12 [Example 43, (4R,5S,6S)-3-(((1S,3S)-3-((1-carbamimidoylpiperidin-4-yl)amino)cyclobutyl)thio)-6-((R)-1-hydroxyethyl)-4-methyl-7-oxo-1-azabicyclo[3.2.0]hept-2-ene-2-carboxylic acid] | 1 to 4 (≈ 2.29 to 9.14 µM) | < 1 | 8 to 32 (≈ 18.3 to 73.1 µM) | 1 to 4 (≈ 2.29 to 9.14 µM) | < 1 | 1 to 4 (≈ 2.29 to 9.14 µM) | < 1 | < 1
12 | C[C@@H](O)[C@H]1C(=O)N2C(C(=O)O)=C(S[C@H]3C[C@@H](NC4CCNCC4)C3)[C@H](C)[C@H]12 [Example 44, (4R,5S,6S)-6-((R)-1-hydroxyethyl)-4-methyl-7-oxo-3-(((1S,3S)-3-(piperidin-4-ylamino)cyclobutyl)thio)-1-azabicyclo[3.2.0]hept-2-ene-2-carboxylic acid] | 8 to 32 (≈ 20.2 to 80.9 µM) | < 1 | 8 to 32 (≈ 20.2 to 80.9 µM) | 8 to 32 (≈ 20.2 to 80.9 µM) | 1 to 4 (≈ 2.53 to 10.1 µM) | 1 to 4 (≈ 2.53 to 10.1 µM) | 1 to 4 (≈ 2.53 to 10.1 µM) | < 1

From US20230127944A1, “BROAD-SPECTRUM CARBAPENEMS” (priority 2019, published 2023)
